# Assays:
# [1] = tested on: influenza virus A/WSN/33 NA-I427Q
# [2] = target: influenza virus A/WSN/33 NA-N294S (Influenza A virus, UniProt P03470, N279S); format: biochemical, influenza A virus A/WSN/1933 (H1N1)
# [3] = tested on: influenza virus A/WSN/33 NA-I427M
# [4] = target: influenza virus A/WSN/33 NA-H274Y (Influenza A virus, UniProt P03470, H259Y); format: biochemical, influenza A virus A/WSN/1933 (H1N1)
# [5] = target: influenza virus A/WSN/33 NA-Q136L (Influenza A virus, UniProt P03470, Q120L); format: biochemical, influenza A virus A/WSN/1933 (H1N1)
# [6] = target: influenza virus A/WSN/33 NA-Y155H (Influenza A virus, UniProt P03470, Y139H); format: biochemical, influenza A virus A/WSN/1933 (H1N1)
# [7] = target: influenza virus A/WSN/33 NA-I427Q (Influenza A virus, UniProt P03470, I411Q); settings: read-out: IC50, NA-I427Q
# [8] = target: IAV WSN/33 NA-wt (whole virus) (Influenza A virus, UniProt P03470); experiment: biochemical; set-up: species or system influenza A virus A/WSN/1933 (H1N1); settings: read-out: IC50, NA-wt
# [9] = target: influenza virus A/WSN/33 NA-I427M (Influenza A virus, UniProt P03470, I411M); settings: read-out: IC50, NA-I427M
Compound,"FC, NA-I427Q [1]","FC, NA-N294S [2]","FC, NA-I427M [3]","FC, NA-H274Y [4]","FC, NA-Q136L [5]","FC, NA-Y155H [6]",IC50 [7] [µM],IC50 [8] [µM],IC50 [2] [µM],IC50 [9] [µM],IC50 [4] [µM],IC50 [5] [µM],IC50 [6] [µM]
O=S(=O)(O)c1ccc2c(/N=N/c3ccc(Sc4ccc(/N=N/c5c(O)ccc6cc(S(=O)(=O)O)ccc56)cc4)cc3)c(O)ccc2c1 [Compound 2],1,1,1,2,2,0.2,,,,,,,
"Cc1cc(N=Nc2ccc(N=Nc3c(O)c(S(=O)(=O)O)cc4cc(S(=O)(=O)O)ccc34)cc2C)ccc1N=Nc1ccc2cc(S(=O)(=O)O)cc(S(=O)(=O)O)c2c1 [Compound 1, 7-[2-[4-[2-[4-[2-(2-hydroxy-3,6-disulfo-1-naphthalenyl)diazenyl]-2-methylphenyl]diazenyl]-2-methylphenyl]diazenyl]-1,3-naphthalenedisulfonic acid]",1,1,2,3,2,1,,,,,,,
Cc1ccccc1/N=N/c1ccc(/N=N/c2c(O)ccc3cc(S(=O)(=O)O)cc(S(=O)(=O)O)c23)c(C)c1 [Compound 5],2,3,2,3,2,1,,,,,,,
"CC(=O)N[C@H]1[C@H]([C@H](O)[C@H](O)CO)OC(C(=O)O)=C[C@@H]1O [DANA, 2,3-dehydro-2-deoxy-N-acetylneuraminic acid, reference compound]",,3,1,1,1,3,12.8 ± 0.75,2.44 ± 1.08,8.12 ± 2.07,2.21 ± 0.62,2.51 ± 1.38,2.33 ± 1.32,8.36 ± 3.13

# Reference: article PMC5309245, “Discovery and Characterization of Diazenylaryl Sulfonic Acids as Inhibitors of Viral and Bacterial Neuraminidases” (Frontiers in Microbiology, 2017)
